Assay [1] relates to BaF3. In words: Antiproliferative activity against mouse BaF3 cells expressing rearranged during transfection kinase G810C-CCDC6 incubated for 74 to 76 hrs by cell counting kit 8 method. Background: Formazan colour is commonly taken as a measure of viable cells.
Assay [2] concerns BaF3. In words: Antiproliferative activity against mouse BaF3 cells expressing rearranged during transfection kinase G810R-CCDC6 incubated for 74 to 76 hrs by cell counting kit 8 method.
The test system of assay [3] is BaF3. In words: Antiproliferative activity against mouse BaF3 cells expressing wildtype rearranged during transfection kinase-CCDC6 incubated for 74 to 76 hrs by cell counting kit 8 method.
The subject of assay [4] is BaF3. In words: Antiproliferative activity against mouse BaF3 cells expressing rearranged during transfection kinase V804M-CCDC6 incubated for 74 to 76 hrs by cell counting kit 8 method.
Assay [5] has as its system BaF3. In words: Antiproliferative activity against mouse BaF3 cells incubated for 74 to 76 hrs by cell counting kit 8 method. It counts as functional, cell-based.
The target in assay [6] is Proto-oncogene tyrosine-protein kinase receptor Ret (Homo sapiens, UniProt P07949). In words: Inhibition of wild type rearranged during transfection kinase (unknown origin) preincubated for 1 hr followed by addition of development agent incubated for 1 hr measured by FRET-based Z'-Lyte assay.
Assay [7] has as its system BaF3. In words: Antiproliferative activity against mouse BaF3 cells expressing wildtype rearranged during transfection kinase-KIF5B incubated for 74 to 76 hrs by cell counting kit 8 method.
Assay [8] has as its system BaF3. The assay is described as follows: Antiproliferative activity against mouse BaF3 cells expressing rearranged during transfection kinase V804L-G810R incubated for 74 to 76 hrs by cell counting kit 8 method.
The subject of assay [9] is BaF3. The assay is described as follows: Antiproliferative activity against mouse BaF3 cells expressing rearranged during transfection kinase V804L-KIF5B incubated for 74 to 76 hrs by cell counting kit 8 method.
The test system of assay [10] is BaF3. In words: Antiproliferative activity against mouse BaF3 cells expressing rearranged during transfection kinase V804L-G810C incubated for 74 to 76 hrs by cell counting kit 8 method.
The test system of assay [11] is BaF3. In words: Antiproliferative activity against mouse BaF3 cells expressing rearranged during transfection kinase V804M-KIF5B incubated for 74 to 76 hrs by cell counting kit 8 method.
Assay [12] has as its system BaF3. In words: Antiproliferative activity against mouse BaF3 cells expressing rearranged during transfection kinase V804L-G810S incubated for 74 to 76 hrs by cell counting kit 8 method.

Sequence of Proto-oncogene tyrosine-protein kinase receptor Ret (P07949 whole entry): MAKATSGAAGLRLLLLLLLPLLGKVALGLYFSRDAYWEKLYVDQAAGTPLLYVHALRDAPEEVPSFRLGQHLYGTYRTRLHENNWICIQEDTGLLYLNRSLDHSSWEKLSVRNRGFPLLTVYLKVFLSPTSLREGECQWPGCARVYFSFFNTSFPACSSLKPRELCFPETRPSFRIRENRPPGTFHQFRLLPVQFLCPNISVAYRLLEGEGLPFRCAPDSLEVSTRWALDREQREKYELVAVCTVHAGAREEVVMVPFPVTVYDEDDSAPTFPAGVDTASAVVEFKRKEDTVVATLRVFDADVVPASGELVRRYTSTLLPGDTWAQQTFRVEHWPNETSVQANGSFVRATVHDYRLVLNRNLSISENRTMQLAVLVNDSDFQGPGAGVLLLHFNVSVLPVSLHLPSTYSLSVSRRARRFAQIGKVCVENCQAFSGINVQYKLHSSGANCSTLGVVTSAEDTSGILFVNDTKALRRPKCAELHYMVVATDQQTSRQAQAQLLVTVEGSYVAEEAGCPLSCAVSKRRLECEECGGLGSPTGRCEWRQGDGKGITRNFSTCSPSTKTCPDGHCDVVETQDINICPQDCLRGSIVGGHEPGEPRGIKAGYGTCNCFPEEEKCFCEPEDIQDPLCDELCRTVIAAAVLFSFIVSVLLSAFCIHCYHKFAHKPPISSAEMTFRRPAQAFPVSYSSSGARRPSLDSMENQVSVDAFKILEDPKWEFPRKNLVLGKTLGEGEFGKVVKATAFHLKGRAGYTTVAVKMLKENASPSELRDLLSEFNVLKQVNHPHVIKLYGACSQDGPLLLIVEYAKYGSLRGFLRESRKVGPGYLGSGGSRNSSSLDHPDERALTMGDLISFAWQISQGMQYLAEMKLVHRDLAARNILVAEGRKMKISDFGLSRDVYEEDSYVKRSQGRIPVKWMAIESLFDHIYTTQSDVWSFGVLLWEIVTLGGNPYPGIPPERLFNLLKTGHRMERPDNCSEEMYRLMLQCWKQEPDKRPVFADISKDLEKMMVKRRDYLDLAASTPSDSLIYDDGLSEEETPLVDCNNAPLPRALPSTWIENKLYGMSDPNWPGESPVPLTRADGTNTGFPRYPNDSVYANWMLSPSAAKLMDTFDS

As for `COc1cc(Oc2ccnc3cc(OC)c(C(N)=O)cc23)ccc1Nc1nn(C)cc1C(=O)NC12CC3CC(CC(C3)C1)C2`, the IC50 with BaF3 [1] was determined as 0.349 µM; with BaF3 [2], 0.591 µM; with BaF3 [3] it was 0.0216 µM; in the assay on BaF3 [4] it was 0.141 µM.
With `COc1cc2nccc(Oc3ccc(Nc4nn(C)cc4C(=O)NCC4CCCCC4)cc3)c2cc1C(N)=O`, the IC50 in the assay with BaF3 [1] was 1.26 µM; in the assay on BaF3 [2], 3.62 µM; in the assay with BaF3 [3], 0.281 µM; in the assay on BaF3 [4] it was 0.888 µM; with BaF3 [5], more than 10 µM.
As to `COc1cc2nccc(Oc3ccc(Nc4nn(C)cc4C(=O)Nc4ccc(F)cc4)cc3)c2cc1C(N)=O`, the IC50 is 5.19 µM with BaF3 [1]; 2.91 µM in the assay with BaF3 [2]; more than 10 µM in [6]; 2.98 µM in the assay with BaF3 [3]; 3.02 µM in the assay with BaF3 [4]; 3.06 µM in the assay on BaF3 [5].
With `COc1cc2nccc(Oc3ccc(Nc4nn(C)cc4C(=O)NC45CC6CC(CC(C6)C4)C5)c(C)c3)c2cc1C(N)=O`, the IC50 is 0.0661 µM in the assay on BaF3 [1]; 0.464 µM in the assay with BaF3 [2]; 0.0118 µM with BaF3 [3]; 0.0622 µM in the assay with BaF3 [4]; more than 10 µM in the assay with BaF3 [5].
As to `COc1cc2nccc(Oc3ccc(Nc4nn(C)cc4C(=O)NC45CC6CC(CC(C6)C4)C5)c(Cl)c3)c2cc1C(N)=O`, the half-inhibitory concentration (IC50) is 0.0294 µM with BaF3 [1]; 0.137 µM in the assay with BaF3 [2]; 0.0078 µM in the assay with BaF3 [3]; 0.0534 µM in the assay on BaF3 [4]; more than 10 µM with BaF3 [5].
Turning to `COc1cc2nccc(Oc3ccc(Nc4nn(C)cc4C(=O)NC45CC6CC(CC(C6)C4)C5)cc3)c2cc1C(N)=O`, the half-maximal inhibitory concentration (IC50) was 0.0999 µM in the assay on BaF3 [1]; 0.285 µM with BaF3 [2]; 0.0087 µM in the assay with BaF3 [3]; 0.0608 µM in the assay with BaF3 [4]; more than 10 µM with BaF3 [5].
With `Cn1cc(C(=O)NC23CC4CC(CC(C4)C2)C3)c(Nc2ccc(Oc3ccnc4cc(OCCCN5CCOCC5)c(C(N)=O)cc34)c(F)c2)n1`, the half-inhibitory concentration (IC50) with BaF3 [1] is 0.363 µM; with BaF3 [2], 0.329 µM; in the assay on BaF3 [3], 0.0051 µM; in the assay on BaF3 [4], 0.007 µM; in the assay on BaF3 [5], 1.35 µM.
`COc1cc2nccc(Oc3ccc(Nc4nn(C)cc4C(=O)NCC(C)C)cc3)c2cc1C(N)=O`: the IC50 is 2.28 µM with BaF3 [1]; 2.05 µM in the assay on BaF3 [2]; 0.206 µM with BaF3 [3]; 2.08 µM with BaF3 [4]; more than 10 µM in the assay on BaF3 [5].
Take `COc1cc2nccc(Oc3ccc(Nc4nn(C)cc4C(=O)NC4CCCC4)cc3)c2cc1C(N)=O`: the IC50 in the assay on BaF3 [1] was 3.61 µM; in the assay with BaF3 [2], 7.28 µM; in the assay on BaF3 [3], 0.153 µM; in the assay on BaF3 [4], 1.03 µM; in the assay with BaF3 [5], more than 10 µM.
Taken in the same sequence, the figures for `COc1cc2nccc(Oc3ccc(Nc4nn(C)cc4C(=O)NOCc4ccccc4)cc3)c2cc1C(N)=O` were more than 10 µM, 4.94 µM, 0.41 µM, 0.732 µM and more than 10 µM.
Regarding `COc1cc2nccc(Oc3ccc(Nc4nn(C)cc4C(=O)Nc4cccc(F)c4)cc3)c2cc1C(N)=O`, the 50% inhibitory concentration (IC50) with BaF3 [1] was 8.52 µM; in the assay on BaF3 [2], 3.44 µM; in [6] it was more than 10 µM; in the assay with BaF3 [3] it was 1.56 µM; in the assay with BaF3 [4], 3.27 µM; in the assay with BaF3 [5] it was 4.48 µM.
Turning to `COc1cc2nccc(Oc3ccc(Nc4nn(C)cc4C(=O)NCc4ccccc4)cc3)c2cc1C(N)=O`, the half-maximal inhibitory concentration (IC50) was 8.54 µM with BaF3 [1]; 9.08 µM with BaF3 [2]; 2.19 µM in the assay on BaF3 [3]; 1.12 µM with BaF3 [4]; more than 10 µM with BaF3 [5].
Taken in the same sequence, the figures for `Cn1cc(C(=O)NC23CC4CC(CC(C4)C2)C3)c(Nc2ccc(Oc3ccnc4cc(OCCN5CCOCC5)c(C(N)=O)cc34)c(F)c2)n1` were 0.233 µM, 0.534 µM, 0.0112 µM, 0.0297 µM and more than 10 µM.
With `COc1cc2nccc(Oc3ccc(Nc4nn(C)cc4C(=O)Nc4ccccc4)cc3)c2cc1C(N)=O`, the IC50 in the assay with BaF3 [1] is more than 10 µM; in the assay with BaF3 [2], more than 10 µM; in the assay on BaF3 [3] it was 2.25 µM; in the assay on BaF3 [4], 1.72 µM; with BaF3 [5] it was more than 10 µM.
Regarding `COc1cc2nccc(Oc3ccc(Nc4nn(C)cc4C(=O)NC45CC6CC(CC(C6)C4)C5)cc3F)c2cc1C(N)=O`, the IC50 in the assay with BaF3 [1] was 1 µM; in the assay on BaF3 [2], 1.64 µM; in the assay with BaF3 [3], 0.179 µM; with BaF3 [4], 1.36 µM; in the assay with BaF3 [5], more than 10 µM.
As for `COc1cc2nccc(Oc3ccc(Nc4nn(C)cc4C(=O)NCC4CCCO4)cc3)c2cc1C(N)=O` (stereo unspecified), the IC50 in the assay on BaF3 [1] is 9.51 µM; in the assay on BaF3 [2] it was 9.68 µM; with BaF3 [3], 1.16 µM; in the assay with BaF3 [4] it was 6.91 µM; in the assay with BaF3 [5], more than 10 µM.
Regarding `COc1cc2nccc(Oc3ccc(Nc4nn(C)cc4C(=O)NC4CCCCC4)cc3)c2cc1C(N)=O`, the half-maximal inhibitory concentration (IC50) turned out to be 0.442 µM in the assay with BaF3 [1]; 0.582 µM with BaF3 [2]; 0.024 µM with BaF3 [3]; 0.235 µM in the assay with BaF3 [4]; 4.8 µM with BaF3 [5].
Consider `CO[C@]1(C(=O)N[C@@H](C)c2ccc(-n3cc(F)cn3)nc2)CC[C@H](c2nc(C)cc(Nc3cc(C)[nH]n3)n2)CC1` [PRALSETINIB], for which the IC50 is more than 0.261 µM in the assay on BaF3 [1]; 0.575 µM in the assay with BaF3 [2]; 0.0057 µM in the assay with BaF3 [7]; 0.0044 µM in the assay with BaF3 [3]; 0.0035 µM with BaF3 [4]; 0.241 µM in the assay with BaF3 [8]. The IC50 in the assay with BaF3 [9] came to 0.0041 µM; in the assay on BaF3 [10] it was 0.215 µM; with BaF3 [11], 0.0092 µM; in the assay on BaF3 [5], 1.17 µM; in the assay on BaF3 [12], 0.0217 µM.
As to `COc1cc2nccc(Oc3ccc(Nc4nn(C)cc4C(=O)NC45CCC(CC4)CC5)cc3)c2cc1C(N)=O`, the IC50 in the assay on BaF3 [1] is 0.329 µM; with BaF3 [2], 0.263 µM; with BaF3 [3], 0.0139 µM; in the assay on BaF3 [4], 0.161 µM; with BaF3 [5], more than 10 µM.
Take `COc1cc2nccc(Oc3ccc(Nc4nn(C)cc4C(=O)NC45CC6CC(CC(C6)C4)C5)c(C#N)c3)c2cc1C(N)=O`: the IC50 was 0.148 µM with BaF3 [1]; 0.23 µM in the assay with BaF3 [2]; 0.0188 µM with BaF3 [3]; 0.0703 µM with BaF3 [4]; 9.77 µM in the assay on BaF3 [5].
On to `COc1cc2nccc(Oc3ccc(Nc4nn(C)cc4C(=O)Nc4ccccc4F)cc3)c2cc1C(N)=O`, for which the 50% inhibitory concentration (IC50) was more than 10 µM in the assay on BaF3 [1]; 1.2 µM with BaF3 [2]; more than 10 µM in [6]; more than 10 µM with BaF3 [3]; 1.86 µM in the assay on BaF3 [4]; 1.71 µM in the assay on BaF3 [5].
For the compound `COc1cc2nccc(Oc3ccc(Nc4nn(C)cc4C(=O)N4CCCC5CCCCC54)cc3)c2cc1C(N)=O` (stereo unspecified), the half-inhibitory concentration (IC50) with BaF3 [1] was 3.77 µM; in the assay on BaF3 [2], 1.7 µM; in assay [6], more than 10 µM; with BaF3 [3], 2.98 µM; in the assay with BaF3 [4], 0.903 µM; in the assay on BaF3 [5] it was 4.33 µM.
Turning to `COc1cc2nccc(Oc3ccc(Nc4nn(C)cc4C(=O)NC45CC6CC(CC(C6)C4)C5)cc3F)c2cc1C#N`, the half-maximal inhibitory concentration (IC50) with BaF3 [1] was 0.659 µM; in the assay on BaF3 [2] it was 1.29 µM; with BaF3 [3], 0.142 µM; with BaF3 [4], 1.62 µM; in the assay with BaF3 [5] it was more than 10 µM.
As for `CNC(=O)c1cc2c(Oc3ccc(Nc4nn(C)cc4C(=O)NC45CC6CC(CC(C6)C4)C5)cc3F)ccnc2cc1OC`, the IC50 in the assay with BaF3 [1] is 0.122 µM; in the assay with BaF3 [2], 0.192 µM; with BaF3 [3] it was 0.0138 µM; in the assay with BaF3 [4], 0.0615 µM; in the assay on BaF3 [5], more than 10 µM.
For `COc1cc2nccc(Oc3ccc(Nc4nn(C)cc4C(=O)NC4CCCCCCC4)cc3)c2cc1C(N)=O` the same measures were 0.0953 µM, 0.523 µM, 0.0125 µM, 0.171 µM and 3.21 µM.
Turning to `COc1ccc(CN2C3CC2CN(c2ccc(-c4cc(OCC(C)(C)O)cn5ncc(C#N)c45)cn2)C3)cn1` [SELPERCATINIB], the concentration for half-maximal inhibition (IC50) worked out at 0.472 µM in the assay on BaF3 [1]; 1.1 µM in the assay with BaF3 [2]; 0.0106 µM in the assay on BaF3 [7]; 0.0074 µM in the assay on BaF3 [3]; 0.0174 µM in the assay with BaF3 [4]; 4.34 µM in the assay on BaF3 [8]. Further, the 50% inhibitory concentration (IC50) with BaF3 [9] is 0.0378 µM; with BaF3 [10], 1.24 µM; in the assay on BaF3 [11], 0.072 µM; in the assay with BaF3 [5], more than 10 µM; in the assay on BaF3 [12], 0.253 µM.
For `COc1cc2nccc(Oc3ccc(Nc4nn(C)cc4C(=O)N4CCCCC4)cc3)c2cc1C(N)=O`, the IC50 is 5.76 µM with BaF3 [1]; 3.52 µM with BaF3 [2]; more than 10 µM in assay [6]; 3.06 µM in the assay with BaF3 [3]; 3.78 µM in the assay on BaF3 [4]; 5.65 µM in the assay with BaF3 [5].

The IC50 is the concentration that inhibits the measured activity by half. Higher therefore signals weaker potency.

These data come from ChEMBL document CHEMBL5247627, “1-Methyl-3-((4-(quinolin-4-yloxy)phenyl)amino)-1H-pyrazole-4-carboxamide derivatives as new rearranged during Transfection (RET) kinase inhibitors capable of suppressing resistant mutants in solvent-front regions” (Eur J Med Chem, 2022).
